According to publication PMC3720812, “YjcC, a c-di-GMP Phosphodiesterase Protein, Regulates the Oxidative Stress Response and Virulence of Klebsiella pneumoniae CG43” (PLoS ONE, 2013):

Columns and labels:
MrkJ = biological target: T1, MrkJ (Klebsiella pneumoniae, UniProt G3FT02); assay: release of p-nitrophenol at […] nm; format: biochemical; details: positive control enzyme; activity only in figure
T1 construct: recombinant from pET30b-mrkJ, E. coli BL21(DE3), purified

YjcC-EAL domain = biological target: T2, YjcC-EAL domain (Klebsiella pneumoniae, UniProt A6TGY2); assay: release of p-nitrophenol at […] nm; format: biochemical; details: chromogenic model substrate; activity only in figure
T2 construct: EAL domain only (C-terminal)
T2 sequence (A6TGY2 entry or part of it): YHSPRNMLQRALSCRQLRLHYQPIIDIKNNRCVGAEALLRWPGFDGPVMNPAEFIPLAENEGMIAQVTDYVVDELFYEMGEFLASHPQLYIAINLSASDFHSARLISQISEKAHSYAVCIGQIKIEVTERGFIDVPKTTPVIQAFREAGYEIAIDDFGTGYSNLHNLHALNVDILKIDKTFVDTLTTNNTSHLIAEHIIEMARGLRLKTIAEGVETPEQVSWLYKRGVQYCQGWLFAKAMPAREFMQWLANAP

T1 sequence (G3FT02 entry or part of it): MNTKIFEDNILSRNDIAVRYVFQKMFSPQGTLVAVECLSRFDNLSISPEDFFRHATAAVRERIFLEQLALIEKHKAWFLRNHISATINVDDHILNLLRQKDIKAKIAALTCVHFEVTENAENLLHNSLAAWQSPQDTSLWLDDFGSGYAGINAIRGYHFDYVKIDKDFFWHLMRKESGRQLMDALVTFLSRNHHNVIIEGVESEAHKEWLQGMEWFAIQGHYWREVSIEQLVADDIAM

For `O=[N+]([O-])c1ccc(OP(=O)(O)Oc2ccc([N+](=O)[O-])cc2)cc1` [bis(p-nitrophenyl) phosphate], the “specific PDE activity” value (MrkJ) was “This activity is lower than the level of the recombinant MrkJ” and the “specific PDE activity” value (YjcC-EAL domain) was “the purified EAL domain protein exhibits PDE activity towards pNpp”.
